Results reported in patent publication US20060251714A1, “Pharmaceutical formulations of amyloid inhibiting compounds” (priority 2005, published 2006).

How the values were obtained:
[1] = Example 9 Part I: single oral doses of NC-758-1 in healthy elderly volunteers, plasma pharmacokinetics; assay type: in vivo, human; settings: elderly male and female subjects, fasted; for AUC∞: mean, only subjects with estimable elimination rate constant
From the text: (§1) In the following examples and elsewhere herein, terms are as defined below. The pharmacokinetic parameters were derived by non-compartmental analysis using WinNonlin® (Pharsight Corporation, Mountain View, Calif.) or SAS® for Windows® (SAS Institute Inc., Cary, N.C.).
Part I—The pharmacokinetic profile and the effect of food on single oral doses of 3-APS free acid (modified-release enteric-coated tablet as described in Table 5 above, hereinafter “NC-758-1”) in healthy male and female elderly (≧55 years) volunteers. For doses at multiples of 50 mg, multiple 50 mg tables are administered. The test is an open label, three-period crossover study to assess the pharmacokinetic profile of 3 single oral doses of NC-758-1 in healthy elderly (≧55 years) male and female subjects. The blood samples are collected during 24 h following dosing. Plasma concentrations of 3-APS are determined using a validated LC-MS/MS method.

[2] = Example 11: additional tests, crossing of the blood/brain barrier; assay type: in vivo, human; settings: treated AD patients
[3] = Example 9 Part II: food effect, single oral 100 mg 3-APS in elderly subjects, plasma pharmacokinetics; assay type: in vivo; settings: both sexes, human, single oral 100 mg (Table 5 tablet), elderly male and female subjects; for AUC(0-inf) / Cmax / AUC(0-t): po, 100 mg; for AUC(0-inf): mean, only subjects with estimable elimination rate constant; for Cmax / AUC(0-t): n = 8, mean; for AUC(0-t): read-out: AUC0-Tlast
Procedure: as §1
Following single oral dosing of 100 mg 3-APS (modified-release coated formulation modified-release enteric-coated tablet as described in Table 5 above) to elderly (55 years or older) male and female subjects under fasted and fed (high fat) conditions, maximum plasma concentrations of 3-APS are attained at 5 and 10.5 h post-dose under fasted and fed conditions, respectively (Table 12A below and FIG. 5 showing the Mean Plasma Concentration-Time Profiles of 3-APS under Fasted and Fed Conditions following Single Oral Administration of 100 mg to Elderly Male and Female Subjects).

[4] = Example 7 Part I: single rising oral doses of NC-758, plasma pharmacokinetics in healthy young and elderly male volunteers; assay type: in vivo, human; settings: for AUC∞: mean, only subjects with estimable elimination rate constant
From the text: as §1
Cmax —the maximum observed plasma concentration.
Tmax—the time of occurrence of Cmax.
AUC0-t—the area under the plasma concentration versus time curve from time zero to the last sampling time at which concentrations were at or above the limit of quantification, calculated by the linear trapezoidal rule.
AUC∞—the area under the plasma concentrations versus time curve from time zero to infinity, calculated from AUC0-t+(Clast/λz), where Clast is the last observed quantifiable concentration and λz is the apparent terminal rate constant.
t1/2—the apparent terminal half-life, calculated from Ln2/λz.
Part I—The pharmacokinetic profile and the effect of food on single rising oral doses of 3-APS free acid, (modified-release enteric-coated tablet, as described in Table 3 above, hereinafter “NC-758”) in healthy male young (18-45 years) volunteers is determined. For doses at multiples of 100 mg, multiple 100 mg tables are administered. The pharmacokinetics of a single oral dose of NC-758 is also determined in a group of healthy male elderly (≧55 years old) volunteers. The test is a randomized, double-blind, placebo-controlled study to assess the pharmacokinetic profile of 4 single rising oral doses of NC-758 in healthy young (18-45 years) male subjects. Blood samples are collected during 24 h following dosing. Plasma concentrations of 3-APS are determined using a validated LC-MS/MS method.

[5] = Example 12: 3-APS concentration in cerebrospinal fluid of CAA patients; assay type: in vivo; settings: human, oral, 5 hours post-dose on Week 12, range of means, CSF samples from five patients, some below lower limit of quantitation, read-out: mean concentrations of 3-APS in the cerebrospinal fluid (CSF)
Procedure: A total of 24 patients who have had lobar cerebral hemorrhage are randomized to receive in a 1:1:1 ratio 3-APS 50, 100 or 150 mg BID for 12 weeks. A lumbar puncture is performed on an optional basis at Weeks 0 and 12 to assess the pharmacological effect of 3-APS on Aβ40, Aβ42 and tau concentrations in cerebrospinal fluid (CSF) and to measure the drug concentration in the CSF. Rating instruments (NIHSS, Barthel Index, ADAS-cog and EXIT25) are administered at Weeks 0 and 12 to evaluate the neurological and cognitive functions as well as the daily functioning.
For pharmacokinetic investigations, blood samples are collected from each patient prior to dosing and at specified time points through 12 h post-dose after the first dose (Week 0) and the last dose (Week 12). Blood samples are also collected prior to the first dose of the day during Week 2, 4 and 8 visits. CSF samples are obtained by lumbar puncture prior to dosing on Week 0 and approximately 5 hours post-dose on Week 12.
The mean concentrations of 3-APS in the cerebrospinal fluid (CSF) 5 hours post-dose on Week 12 range from 3.28 to 4.10 ng/mL confirming that the central nervous system is exposed to the drug.

[6] = single oral 50 mg NC-758-1 (Table 5 tablet), n = 9, mean
[7] = single oral 100 mg NC-758-1 (Table 5 tablet), n = 9, mean
[8] = single oral 150 mg NC-758-1 (Table 5 tablet), n = 8, mean
[9] = 200 mg dose, see Tables 9 and 10
[10] = single oral 100 mg NC-758 (Table 3 tablet), young (18-45 years) male subjects, fasted, n = 5, mean
[11] = single oral 200 mg NC-758 (Table 3 tablet), elderly (>55 years) male subjects, fasted, n = 6, mean
[12] = single oral 200 mg NC-758 (Table 3 tablet), young (18-45 years) male subjects, fasted, n = 6, mean
[13] = single oral 300 mg NC-758 (Table 3 tablet), young (18-45 years) male subjects, fasted, n = 5, mean
[14] = single oral 400 mg NC-758 (Table 3 tablet), young (18-45 years) male subjects, fasted, n = 3, mean

SMILES: NCCCS(=O)(=O)O [3-APS, 3-amino-1-propanesulfonic acid]
- AUC∞ ([1]; single oral 50 mg NC-758-1 (Table 5 tablet)): 1566 ng·h/mL
- AUC(0-t) [1, 6]: 1537 ng·h/mL
- Cmax [1, 6]: 469 ng/mL
- AUC∞ ([1]; single oral 100 mg NC-758-1 (Table 5 tablet)): 2871 ng·h/mL
- AUC(0-t) [1, 7]: 3128 ng·h/mL
- Cmax [1, 7]: 745 ng/mL
- AUC∞ ([1]; single oral 150 mg NC-758-1 (Table 5 tablet)): 4497 ng·h/mL
- AUC(0-t) [1, 8]: 5303 ng·h/mL
- Cmax [1, 8]: 1029 ng/mL
- crossing of the blood/brain barrier [2]: crossed the blood/brain barrier
- AUC(0-inf) ([3]; Fasting Arm): 3290 ng·h/mL
- Cmax ([3]; Fasting Arm): 931 ng/mL
- AUC(0-t) ([3]; Fasting Arm): 3220 ng·h/mL
- AUC(0-inf) ([3]; Fed Arm (high fat)): 2830 ng·h/mL
- Cmax ([3]; Fed Arm (high fat)): 671 ng/mL
- AUC(0-t) ([3]; Fed Arm (high fat)): 3400 ng·h/mL
- Tmax ([3]; Fed Arm (high fat), n = 8, median): 10.5 h
- AUC0-t greater in elderly subjects compared to young subjects [4, 9]: approximately 70%
- Cmax greater in elderly subjects compared to young subjects [4, 9]: approximately 70%
- AUC∞ ([4]; single oral 100 mg NC-758 (Table 3 tablet), young (18-45 years) male subjects, fasted): 1421 ng·h/mL
- AUC0-Tlast [4, 10]: 1392 ng·h/mL
- Cmax [4, 10]: 410 ng/mL
- AUC0-Tlast [4, 11]: 4882 ng·h/mL
- Cmax [4, 11]: 1094 ng/mL
- AUC∞ ([4]; single oral 200 mg NC-758 (Table 3 tablet), young (18-45 years) male subjects, fasted): 2492 ng·h/mL
- AUC0-Tlast [4, 12]: 2898 ng·h/mL
- Cmax [4, 12]: 661 ng/mL
- AUC∞ ([4]; single oral 300 mg NC-758 (Table 3 tablet), young (18-45 years) male subjects, fasted): 4464 ng·h/mL
- AUC0-Tlast [4, 13]: 3999 ng·h/mL
- Cmax [4, 13]: 904 ng/mL
- AUC0-Tlast [4, 14]: 15966 ng·h/mL
- Cmax [4, 14]: 5367 ng/mL
- Tmax ([4]; single oral 400 mg NC-758 (Table 3 tablet), young (18-45 years) male subjects, fasted, n = 3, median): 2 h
- concentration at 5 h [5]: 3.28 to 4.1 ng/mL
